Results reported in US10435399B2, “HDAC6 inhibitory heterocyclic compound” (TAKEDA PHARMACEUTICAL COMPANY LIMITED, priority 2017, dated 2019).

biological target: T1, HDAC6 enzyme (Homo sapiens, UniProt Q9UBN7); test: HDAC6 enzyme inhibitory activity (HDAC-Glo I/II Assay kit); type: biochemical; conditions: 10 μM; wells without enzyme = 100% inhibition; read-out: HDAC6 inhibitory rate (%) (10 μM)
T1 construct: transducing full length HDAC6 gene into Sf-9 insect cells; GST; purchased SignalChem; host or cells: Sf-9 insect cells
T1 sequence (Q9UBN7 1-1215): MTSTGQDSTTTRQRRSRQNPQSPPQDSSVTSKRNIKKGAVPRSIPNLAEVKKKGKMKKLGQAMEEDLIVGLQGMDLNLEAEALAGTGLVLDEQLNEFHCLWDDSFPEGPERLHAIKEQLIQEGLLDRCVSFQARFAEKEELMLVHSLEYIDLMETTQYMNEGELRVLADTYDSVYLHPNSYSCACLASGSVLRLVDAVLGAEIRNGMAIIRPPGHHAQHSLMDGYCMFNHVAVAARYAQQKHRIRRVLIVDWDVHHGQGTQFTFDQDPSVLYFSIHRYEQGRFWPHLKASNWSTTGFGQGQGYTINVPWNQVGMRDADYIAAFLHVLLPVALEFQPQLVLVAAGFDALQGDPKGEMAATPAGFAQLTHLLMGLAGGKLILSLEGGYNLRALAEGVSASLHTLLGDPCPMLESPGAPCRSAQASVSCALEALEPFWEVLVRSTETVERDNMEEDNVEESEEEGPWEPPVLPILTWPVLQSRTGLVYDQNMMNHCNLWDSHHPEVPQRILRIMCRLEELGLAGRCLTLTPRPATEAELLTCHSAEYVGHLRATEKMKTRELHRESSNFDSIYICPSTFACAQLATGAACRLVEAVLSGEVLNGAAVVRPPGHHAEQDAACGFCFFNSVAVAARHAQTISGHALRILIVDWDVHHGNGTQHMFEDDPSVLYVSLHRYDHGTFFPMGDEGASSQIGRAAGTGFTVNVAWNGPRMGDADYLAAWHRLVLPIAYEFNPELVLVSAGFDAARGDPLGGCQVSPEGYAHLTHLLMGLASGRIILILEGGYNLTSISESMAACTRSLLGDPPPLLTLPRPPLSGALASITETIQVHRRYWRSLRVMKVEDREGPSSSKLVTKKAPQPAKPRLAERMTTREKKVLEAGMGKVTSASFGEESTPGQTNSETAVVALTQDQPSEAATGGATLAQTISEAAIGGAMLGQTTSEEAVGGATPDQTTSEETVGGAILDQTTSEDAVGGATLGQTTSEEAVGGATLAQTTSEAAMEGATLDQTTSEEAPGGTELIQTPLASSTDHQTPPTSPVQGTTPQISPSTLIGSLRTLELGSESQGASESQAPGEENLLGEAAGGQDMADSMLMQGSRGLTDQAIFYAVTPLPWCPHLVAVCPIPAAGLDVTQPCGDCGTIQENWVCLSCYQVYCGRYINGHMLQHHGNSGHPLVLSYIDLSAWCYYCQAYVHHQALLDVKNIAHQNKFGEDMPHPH
Outline: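 Sf-9-derived GST-purified full-length HDAC6 + cpd, 60 min RT, 24 mM Tris pH 7.5/0.6 mM glutathione/0.01% Tween-20; add HDAC-Glo substrate-developer, 20 min RT; luminescence. No-enzyme = 100% inhibition.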

In order of falling inhibition at 10 µM:
1. O=C1c2cc(-c3nnc(C(F)F)o3)ccc2CN1CCOc1ccccc1 [Example 209, 6-(5-(difluoromethyl)-1,3,4-oxadiazol-2-yl)-2-(2-phenoxyethyl)isoindolin-1-one]  107%
2. CCC(F)(F)C(=O)N[C@@H]1CCCC[C@H]1N1Cc2c(F)cc(-c3nnc(C(F)F)o3)cc2C1=O [Example 210, N-((1R,2R)-2-(6-(5-(difluoromethyl)-1,3,4-oxadiazol-2-yl)-4-fluoro-1-oxo-1,3-dihydro-2H-isoindol-2-yl)cyclohexyl)-2,2-difluorobutanamide]  101%
3. O=C1c2cc(-c3nnc(C(F)F)o3)cc(F)c2CN1[C@@H]1CCOC[C@H]1NC(=O)C1(C(F)(F)F)CCC1 [Example 212, N-((3S,4R)-4-(6-(5-(difluoromethyl)-1,3,4-oxadiazol-2-yl)-4-fluoro-1-oxo-1,3-dihydro-2H-isoindol-2-yl)tetrahydro-2H-pyran-3-yl)-1-(trifluoromethyl)cyclobutanecarboxamide]  101%
4. O=C1c2cc(-c3nnc(C(F)F)o3)cnc2CN1[C@@H]1CCCC[C@H]1NC(=O)C(F)(F)F [Example 215, N-((1R,2R)-2-(3-(5-(difluoromethyl)-1,3,4-oxadiazol-2-yl)-5-oxo-5,7-dihydro-6H-pyrrolo[3,4-b]pyridin-6-yl)cyclohexyl)-2,2,2-trifluoroacetamide]  101%
5. O=C1c2cc(-c3nnc(C(F)F)o3)cnc2CN1[C@@H]1CCCC[C@H]1NC(=O)C1(c2ccc(F)cc2)CC1 [Example 221, N-((1R,2R)-2-(3-(5-(difluoromethyl)-1,3,4-oxadiazol-2-yl)-5-oxo-5,7-dihydro-6H-pyrrolo[3,4-b]pyridin-6-yl)cyclohexyl)-1-(4-fluorophenyl)-cyclopropanecarboxamide]  101%
6. O=C1c2cc(-c3nnc(C(F)F)o3)ccc2CN1c1ccccc1-c1cccnc1 [Example 208, 6-(5-(difluoromethyl)-1,3,4-oxadiazol-2-yl)-2-(2-(pyridin-3-yl)phenyl)isoindolin-1-one]  100%
7. CC1(C(=O)N[C@@H]2CCCC[C@H]2N2Cc3c(F)cc(-c4nnc(C(F)F)o4)cc3C2=O)COC1 [Example 211, N-((1R,2R)-2-(6-(5-(difluoromethyl)-1,3,4-oxadiazol-2-yl)-4-fluoro-1-oxo-1,3-dihydro-2H-isoindol-2-yl)cyclohexyl)-3-methyloxetane-3-carboxamide]  100%
8. CC(C)(OC(=O)N[C@@H]1COCC[C@H]1N1Cc2c(F)cc(-c3nnc(C(F)F)o3)cc2C1=O)C(F)(F)F [Example 213, 1,1,1-trifluoro-2-methylpropan-2-yl ((3S,4R)-4-(6-(5-(difluoromethyl)-1,3,4-oxadiazol-2-yl)-4-fluoro-1-oxo-1,3-dihydro-2H-isoindol-2-yl)tetrahydro-2H-pyran-3-yl)carbamate]  100%
9. CC(C)(F)C(=O)N[C@@H]1CCCC[C@H]1N1Cc2ncc(-c3nnc(C(F)F)o3)cc2C1=O [Example 214, N-((1R,2R)-2-(3-(5-(difluoromethyl)-1,3,4-oxadiazol-2-yl)-5-oxo-5,7-dihydro-6H-pyrrolo[3,4-b]pyridin-6-yl)cyclohexyl)-2-fluoro-2-methylpropanamide]  100%
10. O=C1c2cc(-c3nnc(C(F)F)o3)cnc2CN1[C@@H]1CCCC[C@H]1NC(=O)C1(F)CC1 [Example 216, N-((1R,2R)-2-(3-(5-(difluoromethyl)-1,3,4-oxadiazol-2-yl)-5-oxo-5,7-dihydro-6H-pyrrolo[3,4-b]pyridin-6-yl)cyclohexyl)-1-fluorocyclopropanecarboxamide]  100%
11. O=C1c2cc(-c3nnc(C(F)F)o3)cnc2CN1[C@@H]1CCCC[C@H]1NC(=O)C1(F)CCC1 [Example 218, N-((1R,2R)-2-(3-(5-(difluoromethyl)-1,3,4-oxadiazol-2-yl)-5-oxo-5,7-dihydro-6H-pyrrolo[3,4-b]pyridin-6-yl)cyclohexyl)-1-fluorocyclobutanecarboxamide]  100%
12. O=C1c2cc(-c3nnc(C(F)F)o3)cnc2CN1[C@@H]1CCCC[C@H]1NC(=O)C1(C(F)(F)F)CCC1 [Example 219]  100%
13. O=C(N[C@@H]1CCCC[C@H]1N1Cc2ncc(-c3nnc(C(F)F)o3)cc2C1=O)c1cccc(F)c1 [Example 224, N-((1R,2R)-2-(3-(5-(difluoromethyl)-1,3,4-oxadiazol-2-yl)-5-oxo-5,7-dihydro-6H-pyrrolo[3,4-b]pyridin-6-yl)cyclohexyl)-3-fluorobenzamide]  100%
14. O=C1c2cc(-c3nnc(C(F)F)o3)cc(F)c2CN1C[C@H]1COCCN1CC(F)(F)C(F)(F)F [Example 227, 6-(5-(difluoromethyl)-1.3,4-oxadiazol-2-yl)-4-fluoro-2-(((3S)-4-(2,2,3,3,3-pentafluoropropyl)morpholin-3-yl)-methyl)isoindolin-1-one]  100%
15. N#Cc1ccccc1-c1ccccc1N1Cc2ccc(-c3nnc(C(F)F)o3)cc2C1=O [Example 230, 2′-(6-(5-(difluoromethyl)-1,3,4-oxadiazol-2-yl)-1-oxo-1,3-dihydro-2H-isoindol-2-yl)-biphenyl-2-carbonitrile]  100%
16. O=C(N[C@@H]1CCCC[C@H]1N1Cc2ncc(-c3nnc(C(F)F)o3)cc2C1=O)c1ccccc1F [Example 222, N-((1R,2R)-2-(3-(5-(difluoromethyl)-1,3,4-oxadiazol-2-yl)-5-oxo-5,7-dihydro-6H-pyrrolo[3,4-b]pyridin-6-yl)cyclohexyl)-2-fluorobenzamide]  99%
17. N#Cc1ccccc1C(=O)N[C@@H]1CCCC[C@H]1N1Cc2ncc(-c3nnc(C(F)F)o3)cc2C1=O [Example 223, 2-cyano-N-((1R,2R)-2-(3-(5-(difluoro-methyl)-1,3,4-oxadiazol-2-yl)-5-oxo-5,7-dihydro-6H-pyrrolo[3,4-b]-pyridin-6-yl)cyclohexyl)benzamide]  99%
18. O=C(N[C@@H]1CCCC[C@H]1N1Cc2ncc(-c3nnc(C(F)F)o3)cc2C1=O)c1cccc(C(F)(F)F)c1 [Example 226, N-((1R,2R)-2-(3-(5-(difluoromethyl)-1,3,4-oxadiazol-2-yl)-5-oxo-5,7-dihydro-6H-pyrrolo[3,4-b]pyridin-6-yl)cyclohexyl)-3-(trifluoromethyl)-benzamide]  99%
19. CC(C)(C(=O)N[C@@H]1CCCC[C@H]1N1Cc2ncc(-c3nnc(C(F)F)o3)cc2C1=O)C(F)(F)F [Example 217, N-((1R,2R)-2-(3-(5-(difluoromethyl)-1,3,4-oxadiazol-2-yl)-5-oxo-5,7-dihydro-6H-pyrrolo[3,4-b]pyridin-6-yl)cyclohexyl)-3,3,3-trifluoro-2,2-dimethylpropanamide]  98%
20. N#Cc1cccc(C(=O)N[C@@H]2CCCC[C@H]2N2Cc3ncc(-c4nnc(C(F)F)o4)cc3C2=O)c1 [Example 225, 3-cyano-N-((1R,2R)-2-(3-(5-(difluoro-methyl)-1,3,4-oxadiazol-2-yl)-5-oxo-5,7-dihydro-6H-pyrrolo[3,4-b]pyridin-6-yl)cyclohexyl)benzamide]  98%
21. O=C1c2cc(-c3nnc(C(F)F)o3)cc(F)c2CN1C[C@H]1COCCN1CC(F)(F)C(F)F [Example 228, 6-(5-(difluoromethyl)-1,3,4-oxadiazol-2-yl)-4-fluoro-2-(((3S)-4-(2,2,3,3-tetrafluoropropyl)morpholin-3-yl)-methyl)isoindolin-1-one]  98%
22. O=C1c2cc(-c3nnc(C(F)F)o3)ccc2CN1[C@@H]1CCCC[C@H]1O [Example 220, 6-(5-(difluoromethyl)-1,3,4-oxadiazol-yl)-2-((1R,2R)-2-hydroxycyclohexyl)-isoindolin-1-one]  94%

same assay, conditions: read-out: HDAC6 inhibitory rate (%) (10 μM)

Work on `O=C1c2cc(-c3nnc(C(F)F)o3)cc(F)c2CN1C[C@H]1COCCN1CC(F)(F)C(F)(F)C(F)(F)F` [Example 229, 6-(5-(difluoromethyl)-1,3,4-oxadiazol-2-yl)-4-fluoro-2-(((3S)-4-(2,2,3,3,4,4,4-heptafluorobutyl)-morpholin-3-yl)methyl)isoindolin-1-one] yielded an inhibition at 10 µM of 100%.
